The record followed here is US11759480B2, “Compositions and methods for CAR T cell therapy” (ENDOCYTE, INC., priority 2017, dated 2023).

The structures appear in SMILES notation.

In one data set the test system is OV90. Kind of data set: EC17 dependent anti-tumor activity, OV90 xenograft (Example 26). Format: in vivo, NSG mice. The conditions noted are these: 500 nmoles/kg once per week, 5 million CAR-T. From the text:
Immunodeficient NSG mice (Jackson Laboratory) were used to show the efficacy of CAR T cell anti-tumor activity with a single dose of EC17 per week. Two folate receptor expressing cancer cell lines were used to establish subcutaneous solid tumor xenografts: MDA-MB-231 has high folate receptor expression, while OV90 has low folate receptor expression. When tumor volume of around 100-250 mm^3 was reached, mice were divided into two groups. Mice in the “EC17 500 nmol/kg” group (nmol/kg is equivalent to nmoles/kg as used in this patent application for the bridge) were injected with 500 nmoles/kg of body weight of EC17, while mice in the “no EC17” group were not injected with EC17. Four hours later, mice in both groups were administered 5 million anti-FITC CAR-T cells. After initial administration of EC17 and CAR-T cells, only mice in the “EC17 500 nmol/kg” group were injected (i.v.) with 500 nmoles/kg of EC17 once per week. Anti-tumor efficacy was monitored by tumor volume.

In data set [1] the test system is MDA-MB-231. Nature of the data set: FITC-CAR-T/EC17 therapy, MDA-MB-231 model (Example 28). Format: in vivo, NSG mice. The following applies: 500 nmol/kg weekly, 5 million FITC-CAR-T. As to the method: (§1) To test whether FITC-CAR-T/EC17 therapy has anti-tumor activity in various FR+ tumor models, NSG mice were subcutaneously implanted with MDA-MB-231 (triple negative breast cancer cell line), OV90 (human ovarian cancer cell line), KB (human cervical adenocarcinoma cell line), SKOV-3 (human ovarian carcinoma cell line), or HEK293-FRa (HEK293 stably-transfected with human FRa). When tumor size reached […], one dose of EC17 at 500 nmol/kg of body weight was injected by tail vein followed with administering of 5 million FITC-CAR-T cells 4 hours later. 500 nmol/kg EC17 was dosed once every week after the initial EC17/CAR-T administration (about day 7), tumor size and body weights of mice were monitored three times per week. The EC17 dosing days were labeled as green dashed vertical lines in the graph. […] EC17 dose-dependent temporary body weight loss was also observed in all tumor bearing mice, indicating the activation of CAR-Ts is EC17-dependent in these mice.

The next data set relates to KB. Nature of the data set: FITC-CAR-T/EC17 therapy, KB model (Example 28). Format: in vivo, NSG mice. As to the method:
as §1

Another data set deals with FR+ MDA-MB-231 tumors. Kind of data set: FITC-CAR-T toxicity and spleen size in MDA-MB-231 s.c. model (Example 37). Format: in vivo, mice. Here is the method:
(§2) The evaluation of FITC-CAR-T proliferation and related toxicity in both naïve mice and mice bearing FR+ tumor xenografts was tested. To evaluate whether FITC-CAR-T proliferation in vivo is dependent on the co-existence of the bridge (e.g. EC17) and the tumor antigen (e.g. folate receptor), FITC-CAR-T proliferation in vivo was compared in naïve mice and mice bearing FR+ tumor xenografts, either with or without EC17. 5-8 million CAR-T cells (as indicated in FIGS. 42 and 43) were administered (i.v.) into naïve mice without tumors and mice bearing FR+ tumor xenografts (80-200 mm3). 500 nmol/kg EC17 was dosed 4 hours before and three times per week post CAR-T administration, if desired. Mice were monitored for body weight changes and CAR-T cell count in blood circulation; some mice were also euthanized weekly to evaluate organs. […] CAR-T cell count in blood samples was also compared to evaluate CAR-T proliferation. […] Since the enlargement of spleen size is another indicator for CAR-T proliferation in vivo, spleen size was also measured as shown in FIG. 43B.
(§3) For FIG. 42, the MDA-MB-231 s.c. model was used. For FIG. 43A, the HEK-FRa s.c. xenograft model was used. For FIG. 43B, the MDA-MB-231 s.c. model was used.

In another data set the test system is FR+ HEK-FRa xenografts. Nature of the data set: FITC-CAR-T proliferation in HEK-FRa s.c. xenograft model (Example 37). Format: in vivo, mice. The conditions noted are these: 500 nmol/kg three times per week. As to the method: as §2, §3
Data set [2] relates to anti-fluorescein scFv on CAR T cells. Kind of data set: Competitive binding assay against FITC-Alexa647 on CAR T cells. The following applies: 1 μM competing ligand versus FITC-Alexa647 10 nM. Here is the method: To examine the ability of bridge molecules to bind anti-fluorescein scFv on CAR T cells, a competitive binding assay was developed. Measurement of the fluorescein signal from CAR T cell bound bridges could not be used due to the overlap of its fluorescence with that of the GFP expressing CAR T cells. For this purpose, FITC-Alexa647 (10 nM) was allowed to bind anti-fluorescein CAR T cells in the absence or presence of excess (1 μM) competing ligand (i.e. FITC-folate, FITC-DUPA, FITC-CA9) for 1 h at room temperature. After incubation, anti-fluorescein CAR T cells were washed 3× with PBS to remove unbounded FITC-Alexa647, and the washed cells were analyzed for Alexa647 fluorescence by flow cytometry.
Fluorescein-folate (FITC-folate) and fluorescein-PSMA (FITC-DUPA) were synthesized as previously described. To examine the ability of these bridge molecules to bind anti-fluorescein scFv on CAR T cells, a competitive binding assay had to be developed, because measurement of the fluorescein signal from CAR T cell bound bridge could not be used due to the overlap of its fluorescence with that of the GFP expressing CAR T cells. For this purpose, FITC-Alexa647 (10 nM) was allowed to bind anti-fluorescein CAR T cells in the absence or presence of excess (1 μM) competing ligand (i.e. FITC-folate) for 1 h at room temperature. After incubation, anti-fluorescein CAR T cells were washed 3× with PBS to remove unbounded FITC-Alexa647, and the washed cells were analyzed for Alexa647 fluorescence by flow cytometry. For analysis of FITC-folate to binding to folate receptor, FR positive KB cells were incubated with FITC-folate (100 nM) in the absence or presence of excess (10 μM) free folate (i.e. as a competitive ligand). After washing samples with PBS (3 times), samples were analyzed by flow cytometry for fluorescein-folate binding.

The subject of data set [3] is MDA-MB-231. Kind of data set: CAR-T and EC17 therapy-related toxicity versus tumor size (Example 46). Format: in vivo, NSG mice. Here is the method:
To explore whether CAR-T therapy related toxicity is dependent on tumor load, NSG mice were s.c. implanted with MDA-MB-231. Ten mice with different tumor sizes ranging between 150-900 mm^3 were selected for this study. For the CAR-T cells, 10.5 million GFP+FITC-CAR-T cells were i.v. injected followed by 500 nmol/kg EC17 administration 48 hours later (FIG. 71A). Body weights of mice were compared between before CAR-T injection and 18 hours post EC17 administration. […] With higher tumor burden, mice lost more body weight after CAR-T and EC17 treatment. […] Plasma samples were separated immediately and stored at −20° C. until the analysis of cytokine levels using a human cytokine detection kit (Biolegend). […] With higher tumor burden, more IL-6 was produced after CAR-T and EC17 treatment. IL-6 has been widely reported to be the predicting biomarker for severe cytokine release syndrome in human patients with liquid tumors when they are treated with conventional CAR-T therapy.

For `Nc1nc2ncc(CNc3ccc(C(=O)NC(CCC(=O)NCCNC(=S)Nc4ccc(-c5c6ccc(=O)cc-6oc6cc(O)ccc56)c(C(=O)O)c4)C(=O)O)cc3)nc2c(=O)[nH]1` (stereo not shown) [EC17, FITC-Folate], in the data set on OV90, the anti-tumor activity entry is reported as “EC17 dependent anti-tumor activity”. In the data set on MDA-MB-231 [1], this compound displayed a cures of 100%. For the same compound, the tumor response entry in the data set on KB (500 nmol/kg weekly, 5 million FITC-CAR-T) is “stable disease”. The “fraction of mice with sCRS” value in the data set on KB (day 23) was “⅔”; in the data set with KB (day 37), “⅓”. The spleen size entry with FR+ MDA-MB-231 tumors (500 nmol/kg three times per week) is given as “enlarged spleens”. Besides, the body weight entry in the data set on FR+ MDA-MB-231 tumors (EC17 three times per week) was “body weight loss in the first 10 days”. Besides, the FITC-CAR-T proliferation entry in the data set on FR+ HEK-FRa xenografts is “rapid proliferation”. The “binding to CAR-expressing T cells” value in data set [2] is on record as “able to bind to the CAR-expressing T cells”; in data set [2] (listed as fluorescein-folate), “competitively block FITC-Alexa 647 binding”. The “cytokine release syndrome grade” value in the data set with MDA-MB-231 [3] (18 hours after 500 nmol/kg, 10.5 million CAR-T) was found to be 2 grade. For the same compound, the body weight changes result in the data set on MDA-MB-231 [3] (tumors 150-900 mm^3) is on record as “tumor size dependent”. Moreover, in the data set with MDA-MB-231 [3] (tumors 150-900 mm^3), the “production of IL-6” value is reported as “tumor size dependent”.
